From ChEMBL document CHEMBL1201862, “PubChem BioAssay data set” (2004)
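Interpolation was linear, between the two tested concentrations surrounding the appropriate level; five concentrations were tested over 48 hours in 96-well plates. Abbreviation: GI50, concentration required for 50% inhibition of growth.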 The source made the active and inactive calls. Rule as the data show it: active = GI50 up to about 1.1 µM and inactive = higher.

Key:
Experiment in all cases: inhibition of tumour cell growth, NCI panel, 48 h
MOLT-4 = tested on: MOLT-4
DU-145 = tested on: DU-145
MDA-MB-231 = tested on: MDA-MB-231
SN12C = tested on: SN12C
TK-10 = tested on: TK-10
CCRF-CEM = tested on: CCRF-CEM
SK-MEL-5 = tested on: SK-MEL-5
OVCAR-4 = tested on: OVCAR-4
MDA-MB-435 = tested on: MDA-MB-435
HOP-62 = tested on: HOP-62
SK-MEL-28 = tested on: SK-MEL-28
KM12 = tested on: KM12
U-251 = tested on: U-251
OVCAR-8 = tested on: OVCAR-8
SNB-75 = tested on: SNB-75
CAKI-1 = tested on: CAKI-1
ACHN = tested on: ACHN
OVCAR-3 = tested on: OVCAR-3
SNB-19 = tested on: SNB-19
PC-3 = tested on: PC-3

SMILES | GI50 (MOLT-4) | GI50 (DU-145) | GI50 (MDA-MB-231) | GI50 (SN12C) | GI50 (TK-10) | GI50 (CCRF-CEM) | GI50 (SK-MEL-5) | GI50 (OVCAR-4) | GI50 (MDA-MB-435) | GI50 (HOP-62) | GI50 (SK-MEL-28) | GI50 (KM12) | GI50 (U-251) | GI50 (OVCAR-8) | GI50 (SNB-75) | GI50 (CAKI-1) | GI50 (ACHN) | GI50 (OVCAR-3) | GI50 (SNB-19) | GI50 (PC-3)
Cn1ncc2c(NCc3ccccc3)ncnc21 | > 100 µM (inactive) | > 100 µM (inactive) | > 100 µM (inactive) | > 100 µM (inactive) | > 100 µM (inactive) | > 100 µM (inactive) | > 100 µM (inactive) | > 100 µM (inactive) | > 100 µM (inactive) | > 100 µM (inactive) | > 100 µM (inactive) | > 100 µM (inactive) | > 100 µM (inactive) | > 100 µM (inactive) | 50.6 µM (inactive) | > 100 µM (inactive) | > 100 µM (inactive) | > 100 µM (inactive) | > 100 µM (inactive) | –
CCn1c(-c2cc(OC)cc(OC)c2)nc2c1C(=O)c1ccccc1C2=O | > 100 µM (inactive) | > 100 µM (inactive) | > 100 µM (inactive) | > 100 µM (inactive) | > 100 µM (inactive) | > 100 µM (inactive) | > 100 µM (inactive) | > 100 µM (inactive) | > 100 µM (inactive) | 64.6 µM (inactive) | > 100 µM (inactive) | > 100 µM (inactive) | > 100 µM (inactive) | > 100 µM (inactive) | 22.4 µM (inactive) | – | > 100 µM (inactive) | > 100 µM (inactive) | > 100 µM (inactive) | > 100 µM (inactive)
COc1cc(C=O)cc(/C=N/N=C/c2ccccc2O)c1O | 0.0182 µM (active) | 66.4 µM (inactive) | 23.7 µM (inactive) | 17.6 µM (inactive) | 82.6 µM (inactive) | 8.85 µM (inactive) | 29.1 µM (inactive) | > 100 µM (inactive) | 23.9 µM (inactive) | 30.7 µM (inactive) | 14.7 µM (inactive) | 76.9 µM (inactive) | 29.8 µM (inactive) | – | – | 19.8 µM (inactive) | 16.7 µM (inactive) | 25.5 µM (inactive) | 32.3 µM (inactive) | 12.1 µM (inactive)
O=c1[nH]c(=O)n(COCCO)c2ccc(Br)cc12 | > 100 µM (inactive) | > 100 µM (inactive) | > 100 µM (inactive) | > 100 µM (inactive) | > 100 µM (inactive) | > 100 µM (inactive) | > 100 µM (inactive) | > 100 µM (inactive) | > 100 µM (inactive) | – | > 100 µM (inactive) | > 100 µM (inactive) | > 100 µM (inactive) | > 100 µM (inactive) | 39 µM (inactive) | > 100 µM (inactive) | > 100 µM (inactive) | > 100 µM (inactive) | 50.6 µM (inactive) | –
Cc1c(C(=O)C(=O)c2ccccc2)c(C)c(C(=O)C(=O)c2ccccc2)c(C)c1C(=O)C(=O)c1ccccc1 | > 100 µM (inactive) | – | > 100 µM (inactive) | > 100 µM (inactive) | > 100 µM (inactive) | > 100 µM (inactive) | > 100 µM (inactive) | > 100 µM (inactive) | > 100 µM (inactive) | > 100 µM (inactive) | > 100 µM (inactive) | > 100 µM (inactive) | > 100 µM (inactive) | > 100 µM (inactive) | > 100 µM (inactive) | – | > 100 µM (inactive) | – | > 100 µM (inactive) | > 100 µM (inactive)
C(=N\OCCc1ccccc1)/c1cccnc1 | 76.7 µM (inactive) | > 100 µM (inactive) | > 100 µM (inactive) | > 100 µM (inactive) | > 100 µM (inactive) | > 100 µM (inactive) | > 100 µM (inactive) | > 100 µM (inactive) | > 100 µM (inactive) | > 100 µM (inactive) | > 100 µM (inactive) | > 100 µM (inactive) | > 100 µM (inactive) | > 100 µM (inactive) | 71.6 µM (inactive) | – | > 100 µM (inactive) | > 100 µM (inactive) | > 100 µM (inactive) | > 100 µM (inactive)
O=C1/C(=C/c2ccc(Br)s2)NC(=S)N1c1ccccc1 | > 100 µM (inactive) | > 100 µM (inactive) | 34.3 µM (inactive) | 74.3 µM (inactive) | > 100 µM (inactive) | > 100 µM (inactive) | 63.2 µM (inactive) | 27 µM (inactive) | 86.3 µM (inactive) | 39.1 µM (inactive) | > 100 µM (inactive) | > 100 µM (inactive) | 36.6 µM (inactive) | – | – | 44.5 µM (inactive) | 32.1 µM (inactive) | 62.4 µM (inactive) | 26.9 µM (inactive) | > 100 µM (inactive)
COc1ccc2nc3cc([N+](=O)[O-])ccc3c(Nc3ccc(S(=O)(=O)N=C(N)N)cc3)c2c1 | 2.72 µM (inactive) | 28.8 µM (inactive) | 17.2 µM (inactive) | 48.1 µM (inactive) | 47.2 µM (inactive) | 11 µM (inactive) | 15.7 µM (inactive) | 28.2 µM (inactive) | 39.9 µM (inactive) | 27.2 µM (inactive) | > 100 µM (inactive) | 15.5 µM (inactive) | 30.5 µM (inactive) | – | – | 23.3 µM (inactive) | 40.9 µM (inactive) | 16.5 µM (inactive) | 43.6 µM (inactive) | 12 µM (inactive)
COc1ccc(Oc2nc3ccc(C(F)(F)F)cc3nc2-c2ccccc2)cc1 | 62.4 µM (inactive) | > 100 µM (inactive) | > 100 µM (inactive) | > 100 µM (inactive) | > 100 µM (inactive) | 98.9 µM (inactive) | > 100 µM (inactive) | > 100 µM (inactive) | > 100 µM (inactive) | > 100 µM (inactive) | > 100 µM (inactive) | > 100 µM (inactive) | > 100 µM (inactive) | – | – | > 100 µM (inactive) | > 100 µM (inactive) | > 100 µM (inactive) | > 100 µM (inactive) | > 100 µM (inactive)
CCOC(=O)c1ccc(NC(=O)O/N=C(/Cl)CCl)cc1 | 33.6 µM (inactive) | 65.3 µM (inactive) | > 100 µM (inactive) | 84.9 µM (inactive) | 28.4 µM (inactive) | 21.5 µM (inactive) | 31.6 µM (inactive) | 71.1 µM (inactive) | – | > 100 µM (inactive) | 17.6 µM (inactive) | 15.4 µM (inactive) | 39.4 µM (inactive) | 41 µM (inactive) | 4.01 µM (inactive) | > 100 µM (inactive) | 12.6 µM (inactive) | 37.6 µM (inactive) | 86.1 µM (inactive) | 33.6 µM (inactive)
O=C1C[C@@]23CCC4(CC2=CCC[C@H]3O1)OCCO4 | > 100 µM (inactive) | > 100 µM (inactive) | > 100 µM (inactive) | > 100 µM (inactive) | > 100 µM (inactive) | – | > 100 µM (inactive) | > 100 µM (inactive) | > 100 µM (inactive) | > 100 µM (inactive) | > 100 µM (inactive) | > 100 µM (inactive) | > 100 µM (inactive) | – | – | > 100 µM (inactive) | > 100 µM (inactive) | > 100 µM (inactive) | > 100 µM (inactive) | > 100 µM (inactive)
COc1ccc(/C=C2\N=C3NC(=O)C(N4CCCCC4)=C(N)N3C2=O)cc1 | > 100 µM (inactive) | > 100 µM (inactive) | > 100 µM (inactive) | > 100 µM (inactive) | 47 µM (inactive) | > 100 µM (inactive) | > 100 µM (inactive) | > 100 µM (inactive) | > 100 µM (inactive) | – | > 100 µM (inactive) | > 100 µM (inactive) | 52.8 µM (inactive) | > 100 µM (inactive) | 24.8 µM (inactive) | > 100 µM (inactive) | 70.6 µM (inactive) | – | > 100 µM (inactive) | –
CC1CN=C(N(C(=O)Nc2ccccc2)c2ccccc2)S1 (configuration not stated) | 19 µM (inactive) | 53.2 µM (inactive) | 27.4 µM (inactive) | 25.2 µM (inactive) | 20.6 µM (inactive) | 23.4 µM (inactive) | 16.7 µM (inactive) | 19.5 µM (inactive) | – | 39.9 µM (inactive) | 13.9 µM (inactive) | 32.7 µM (inactive) | 37.7 µM (inactive) | 40.3 µM (inactive) | 13.3 µM (inactive) | 27 µM (inactive) | 37.2 µM (inactive) | 24.9 µM (inactive) | 88.1 µM (inactive) | 36.6 µM (inactive)
COc1cc(OC)c(OC)cc1/C=C/c1nc2ccccc2s1 | 34.2 µM (inactive) | > 100 µM (inactive) | > 100 µM (inactive) | > 100 µM (inactive) | 98.2 µM (inactive) | > 100 µM (inactive) | > 100 µM (inactive) | – | 3.1 µM (inactive) | 29.1 µM (inactive) | > 100 µM (inactive) | > 100 µM (inactive) | > 100 µM (inactive) | > 100 µM (inactive) | 91.4 µM (inactive) | – | > 100 µM (inactive) | > 100 µM (inactive) | > 100 µM (inactive) | 5.78 µM (inactive)
OC(CCN1CCCCC1)(c1ccccc1)c1ccccc1 [PRIDINOL] | > 100 µM (inactive) | > 100 µM (inactive) | > 100 µM (inactive) | > 100 µM (inactive) | > 100 µM (inactive) | > 100 µM (inactive) | 82.8 µM (inactive) | – | 82.8 µM (inactive) | > 100 µM (inactive) | > 100 µM (inactive) | > 100 µM (inactive) | > 100 µM (inactive) | > 100 µM (inactive) | – | > 100 µM (inactive) | > 100 µM (inactive) | > 100 µM (inactive) | > 100 µM (inactive) | > 100 µM (inactive)
